Reference: doi:10.1101/657387v2 (biorxiv, 2019)
Blank lines part the entries; values can stand above or below the molecule they belong to.

Experiments:
Assay in all cases: whole-cell patch clamp, HEK-293T
Format in all cases: cell-based
TASK-3 (hTASK-3) [1] = molecular target: T1, TASK-3 (hTASK-3) (Homo sapiens, UniProt Q9NPC2)
TASK-3 (hTASK-3) [2] = molecular target: T1, TASK-3 (hTASK-3); settings: dose-response
[3] = molecular target: T2, TASK-3/TASK-1 (hTASK-3/hTASK-1) (Homo sapiens, UniProt O14649+Q9NPC2)
T2 sequence (Q9NPC2 whole entry): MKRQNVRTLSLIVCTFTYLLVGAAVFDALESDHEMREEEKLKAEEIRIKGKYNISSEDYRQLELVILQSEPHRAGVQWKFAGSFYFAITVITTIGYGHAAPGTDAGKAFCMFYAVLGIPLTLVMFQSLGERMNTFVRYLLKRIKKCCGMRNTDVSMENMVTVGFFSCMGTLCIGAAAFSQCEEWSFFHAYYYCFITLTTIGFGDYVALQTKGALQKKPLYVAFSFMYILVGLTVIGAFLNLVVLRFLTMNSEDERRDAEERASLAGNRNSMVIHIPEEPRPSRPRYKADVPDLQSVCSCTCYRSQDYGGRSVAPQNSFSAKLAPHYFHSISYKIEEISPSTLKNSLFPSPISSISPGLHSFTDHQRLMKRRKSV
T2 sequence (O14649 whole entry): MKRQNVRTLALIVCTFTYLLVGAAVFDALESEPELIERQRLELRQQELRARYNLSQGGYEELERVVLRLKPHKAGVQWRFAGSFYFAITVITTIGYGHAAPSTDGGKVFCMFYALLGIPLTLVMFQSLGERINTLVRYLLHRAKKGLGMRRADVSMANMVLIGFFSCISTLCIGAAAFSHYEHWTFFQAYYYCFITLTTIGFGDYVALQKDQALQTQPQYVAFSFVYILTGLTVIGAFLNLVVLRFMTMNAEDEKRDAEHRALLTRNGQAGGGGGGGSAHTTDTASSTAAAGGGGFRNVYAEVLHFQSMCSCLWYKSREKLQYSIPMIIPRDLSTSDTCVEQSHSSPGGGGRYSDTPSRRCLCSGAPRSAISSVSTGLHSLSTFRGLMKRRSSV

TASK-3 (hTASK-3) [4] = molecular target: T1, TASK-3 (hTASK-3); settings: read-out: % inhibition at 0.5 μM
[5] = molecular target: T2, TASK-3/TASK-1 (hTASK-3/hTASK-1); settings: read-out: % inhibition at 0.5 μM

T1 sequence (Q9NPC2 whole entry): as the sequence (Q9NPC2 whole entry) above

- EC50 (TASK-3 (hTASK-3) [1]): 500 ± 100 nM
SMILES: Cc1ccc(SCc2cc(O)nc(N=C(N)Nc3cccc4ccccc34)n2)cc1 [CHET3-1]

- whole-cell patch clamp, HEK-293T (TASK-3 (hTASK-3) [2]): while CHET3-2 was inactive (Fig. 4B)
SMILES: Cc1ccc(SCc2cc(O)nc(N=C(N)Nc3ccc(C(C)(C)C)cc3)n2)cc1 [CHET3-2]

- EC50 [3]: 2500 ± 200 nM
- EC50 (TASK-3 (hTASK-3) [1]): 1400 ± 200 nM
SMILES: Cc1ccc(SCc2cc(O)nc(N=C(N)Nc3ccc4c(c3)OCCO4)n2)cc1 [CHET3]

- inhibition at 0.5 µM (TASK-3 (hTASK-3) [4]): 86 ± 3%
- inhibition at 0.5 µM [5]: 90 ± 2%
SMILES: CCCC(=O)C1CCN(c2ncnc3c2CN(C(=O)c2ccc(-c4ccccc4)cc2)CC3)CC1 [PK-THPP]
